Test results: US20030021796A1, “Method of enhancing T cell immunity by selection of antigen specific T cells” (priority 2001, published 2003)
Entries after “also recorded” stand apart in the source; their conditions may differ. Residues, ends and D or L forms follow the SMILES beside them.

Key:
[1] = tested on: transgenic CD4^+ thymocytes; test: Positive selection of CD4^+ thymocytes after peptide injection into TCR^TgTCRα^−H2-M^−Ii^− mice (flow cytometry of thymus); format: in vivo, mouse; details: for positive selection of transgenic thymocytes: i.p., non-deleting dose (20 μg); for percentage of CD4^+ single positive cells (thymus): 3 days after peptide injection; for effect on thymic selection: exogenous peptides without agonist properties
From the text: Mice. The TCR genes were cloned from T cell hybridoma specific for analogs of the PCC(43-58) peptide and expressed in VA-hCD2 cassette (Ignatowicz et al., 1997; Kraj et al., 2001; Zhumabekov et al., 1995). All TCR transgenic mice were made by co-microinjection of the respective […] and TCRβ constructs into fertilized eggs of F1 (C57BL/6×CBA/Ca) mice. TCR Tg mice were crossed to C57B16/TCRα^− (Jackson Laboratory, ME) mice and to mice deficient in H2-M (kindly provided by E. Bikoff and R. Germain) and Ii (kindly provided by L. van Kaer) to obtain TCR^TgTCRα^− H2-M^−Ii^−.
(§1) Flow cytometry analysis. Monoclonal antibodies specific for CD4(RM4-5), CD8(53-6.7), VβB8(F23.1), CD69(H1.2F3), CD44(IM7) and CD62L(MEL-14) were purchased from PharMingen (San Diego, Calif.) and used according to manufacturer's recommendations. Cells were analyzed using a FACSCalibur instrument (Becton Dickinson, San Jose, Calif.) and CellQuest software. For intracellular stain cells were first stained for CD4 and CD8, fixed in 2% paraformaldehyde, permeabilized in 0.1% Tween-20 and stained with anti-bcl-2 antibody (Pharmingen) according to manufacturer instruction.
(§2) Peptide injections and surgical procedures. TCR^TgTCRα^− and TCR^TgTCRαH2-M^−Ii^− were injected i.p. with agonist and control peptides dissolved in PBS. After indicated time mice were sacrificed, thymus and lymph nodes were collected and single cell suspensions were prepared. Pups were injected with 2 μg of peptide subcutaneously 12-24 hours after birth and thymi were transplanted into recipient mice 24 hours after injection. 5-8 week old TCR^TgTCRα^− H2-M^−Ii^− mice were used for thymectomy or as thymic transplant recipients. Surgical procedures were performed as described (Coligan et al., 1997). Mice were handled according with the institutional guidance.

[2] = tested on: TCR^TgTCRα^− lymph node cells; test: Proliferation of TCR transgenic lymph node cells stimulated with agonist peptides ([3H]thymidine incorporation); format: cell-based, mouse; details: for recognition by the transgenic TCR / stimulation of transgenic cells: peptides presented by irradiated C57BL6 splenocytes; for agonist potency / agonist properties: in vitro stimulation of transgenic T cells
Experimental: Antigen response of TCR transgenic cells. Proliferation of lymph node cells isolated from TCR^TgTCRα^−and TCR^TgTCRα^−2-M^−Ii^− mice injected with the selecting peptide was measured in response to antigen. Response of the TCR^TgTCRα^− lymph node cells to different agonist peptides was measured by proliferation assay in a 96-well plate. 10^5 responder cells were stimulated with peptides presented by 5×10^5 irradiated C57BL6 splenocytes. Agonist peptides were used at concentrations of 0.01, 0.1, 0.5, 1.0, 2.5, 5.0, 10.0 and 20.0 μM. After 3 days cells were pulsed with 1 μCi of [^3H]thymidine added to each well and after 18 hours thymidine incorporation was measured. The sequences of peptides used were: PCC50V (AEGFSYTVANKNKGIT), PCC50L (AEGFSYTLANKNKGIT), PCC50V54A (AEGFSYTVANKAKGIT), PCC46A49A50V54A (AEGASYAVANKAKGIT), PCC50F54A (AEGFSYTFANKAKGIT), neutral ceramidase (AGFFQYTLYILASEG) and IgGVH (NADFKTPATLTVDKA). All peptides were synthesized by FMOC (fluorenyl methoxycarbonyl) chemistry and purified by reversed-phase high-performance liquid chromatography. To compare the antigenic response of CD4^+ TCR Tg cells lymph node cells were collected from TCR^TgTCRα^− and TCR^TgTCRα^−H2-M^−Ii^− mice two weeks after peptide injection. Single cell suspensions were prepared and CD4^+ cells were sorted using magnetic beads coated with anti CD4 antibodies (MACS). Purity of sorted cells exceeded 85%. 2×10^4 of purified CD4^+ cells were used in proliferation assay. Cells were stimulated with increasing concentrations of agonist peptides presented by APCs from wild type or H2-M^−Ii^− mice. IgGVH derived peptide (20 μM) was used as a negative control. Peptides were presented by irradiated splenocytes from a C57BL6 mouse. Proliferation was measured after 3 days by thymidine incorporation by pulsing cells with 1 μCi of [^3H] thymidine for 18 hours. Antagonism assay was done by prepulsing 5×10^5 antigen-presenting cells per well for 2 hr. with 5 μM of the antigenic peptide PCC50V54A, washing, and then exposing them to varying concentrations of peptide analogs with 2×10^4 purified CD4^+ TCR^Tg lymphocytes as responder cells (Lyons et al., 1996). For antagonism assays the percent of proliferation inhibition was calculated as 100-100*(thymidine incorporation in the presence of antagonist/thymidine incorporation in the absence of antagonist) (Lyons et al., 1996).

transgenic thymocytes = test: Negative selection of transgenic thymocytes after i.p. peptide injection into TCR^TgTCRα^− mice (wild type A^b); format: in vivo, mouse; details: 24 hours; for negative selection / deletion of transgenic thymocytes: 200 μg/mouse i.p.
Experimental: as §1, §2
Characterization of peptide agonists for the PCC specific transgenic αβTCR. To examine the role of peptides during positive selection in vivo, the inventors generated transgenic mice expressing class II restricted TCR specific for analogs of a pigeon cytochrome C peptide PCC(43-58) presented by the A molecule (Kraj et al., 2001). This receptor recognizes analogs of PCC(43-58) in which aspartic acid in position 50 is replaced by amino acids with neutral/hydrophobic (PCC50V, PCC50V54A, PCC46A49A50V54A, PCC50L, PCC50F) side chains (FIG. 6 and FIG. 9). The TCR transgenic mice were backcrossed to C57BL6 TCRα^− knockout mice so that almost all T cells expressing transgenic TCR become CD4^+ T cells (FIG. 4A and FIG. 10A). Initially, the inventors examined the capacity of agonist peptides to induce negative selection of transgenic T cells.

lymph node cells = test: Repopulation of peripheral lymph nodes in peptide-injected TCR^TgTCRα^−H2-M^−Ii^− mice; format: in vivo, mouse; details: for percentage of CD4^+ positive cells (lymph node): analyzed 12 days after injection
Experimental: as §1, §2

[3] = tested on: peptide selected CD4^+ cells; test: Antigen response (proliferation) of lymph node CD4^+ cells from peptide-injected TCR^TgTCRα^−H2-M^−Ii^− mice; format: cell-based, mouse
Experimental: Antigen response of TCR transgenic cells. Proliferation of lymph node cells isolated from TCR^TgTCRα^−and TCR^TgTCRα^−2-M^−Ii^− mice injected with the selecting peptide was measured in response to antigen. Response of the TCR^TgTCRα^− lymph node cells to different agonist peptides was measured by proliferation assay in a 96-well plate. 10^5 responder cells were stimulated with peptides presented by 5×10^5 irradiated C57BL6 splenocytes. Agonist peptides were used at concentrations of 0.01, 0.1, 0.5, 1.0, 2.5, 5.0, 10.0 and 20.0 μM. After 3 days cells were pulsed with 1 μCi of [^3H]thymidine added to each well and after 18 hours thymidine incorporation was measured. The sequences of peptides used were: PCC50V (AEGFSYTVANKNKGIT), PCC50L (AEGFSYTLANKNKGIT), PCC50V54A (AEGFSYTVANKAKGIT), PCC46A49A50V54A (AEGASYAVANKAKGIT), PCC50F54A (AEGFSYTFANKAKGIT), neutral ceramidase (AGFFQYTLYILASEG) and IgGVH (NADFKTPATLTVDKA). […] Proliferation was measured after 3 days by thymidine incorporation by pulsing cells with 1 μCi of [^3H] thymidine for 18 hours. […] For antagonism assays the percent of proliferation inhibition was calculated as 100-100*(thymidine incorporation in the presence of antagonist/thymidine incorporation in the absence of antagonist) (Lyons et al., 1996).

[4] = tested on: OT-II transgenic thymocytes; test: Selection of OT-II transgenic thymocytes in OT-II TCRα^−→TCRα^−H2M^−Ii^− chimeras after peptide injection; format: in vivo, mouse
From the text: OT-II agonist peptide may be used for positive selection of transgenic CD4^+ cells. Injection of a low dose of agonist peptides restores positive selection of OT-II transgenic CD4^+ T cells in […] →TCRα^−2-M^−Ii^− chimeras. OT-II transgenic mice (C57BL/6TgN(TcrOva)) express a Class II restricted T cell receptor for ovalbumin residues 323-339 in the context of H-2^b. To determine if the experimental approach can be applied to other transgenic CD4^+ T cells, radiation chimeras were generated where TCRα^−H2-H2-M^−Ii^− mice were lethally irradiated and reconstituted with fetal liver from OT-II^TgTCRα^− mice. In these chimeras the development of OT-II^TgTCRα^− thymocytes is arrested at the CD4^+CD8^+ stage due to the lack of endogenous selecting peptides. After 8 weeks chimeras were injected once with different doses of the agonist Ova(323-339) peptide, which is a peptide present in the ovalbumin protein.

## CC[C@H](C)[C@H](NC(=O)CNC(=O)[C@H](CCCCN)NC(=O)[C@H](CC(N)=O)NC(=O)[C@H](CCCCN)NC(=O)[C@H](CC(N)=O)NC(=O)[C@H](C)NC(=O)[C@H](CCC(=O)O)NC(=O)[C@@H](NC(=O)[C@H](Cc1ccc(O)cc1)NC(=O)[C@H](CO)NC(=O)[C@H](Cc1ccccc1)NC(=O)CNC(=O)[C@H](CCC(=O)O)NC(=O)[C@H](C)N)[C@@H](C)O)C(=O)N[C@H](C(=O)O)[C@@H](C)O [PCC50E] (H-AEGFSYTEANKNKGIT-OH)
[1]; 3 μg antagonist + 3 μg PCC50V54A, four days later
  number of CD4^+ thymocytes positively selected by PCC50V54A on co-injection of antagonist: significantly reduced

## AEGASYAVANKAKGIT [PCC46A49A50V54A, analog of PCC(43-58); agonist]
[2]
  recognition by the transgenic TCR / stimulation of transgenic cells: recognizes
[1]
  positive selection of transgenic thymocytes: restored positive selection

## AEGFSYTFANKAKGIT [PCC50F54A, analog of PCC(43-58); agonist]
[2]
  recognition by the transgenic TCR / stimulation of transgenic cells: stimulate
[1]
  positive selection of transgenic thymocytes: restored positive selection

## AEGFSYTLANKNKGIT [PCC50L, analog of PCC(43-58)]
[2]
  agonist potency / agonist properties: Strong agonists
  recognition by the transgenic TCR / stimulation of transgenic cells: recognizes; also recorded: stimulate
Transgenic thymocytes
  negative selection / deletion of transgenic thymocytes: induced profound negative selection
[1]
  positive selection of transgenic thymocytes: restored positive selection

## AEGFSYTVANKNKGIT [PCC50V, analog of PCC(43-58)]
[2]
  agonist potency / agonist properties: moderate agonist
  recognition by the transgenic TCR / stimulation of transgenic cells: recognizes; also recorded: stimulate
Transgenic thymocytes; 20 μg i.p., thymus cellularity, annexin V, TUNNEL
  negative selection of transgenic thymocytes: did not induce negative selection
Transgenic thymocytes
  negative selection / deletion of transgenic thymocytes: induced only marginal deletion; also recorded: induced only limited deletion
[1]
  positive selection of transgenic thymocytes: restored positive selection

## AGFFQYTLYILASEG [neutral ceramidase]
[2]
  agonist potency / agonist properties: weak agonist
[1]; 50 μg i.p.
  positive selection of transgenic CD4^+ thymocytes: weak positive selection; also recorded: mediates positive selection
  percentage of CD4^+ single positive cells (thymus): 1.7±0.6 percentage
Lymph node cells; after i.p. injection, about two weeks
  CD4^+ cells in peripheral lymph nodes: appeatence of CD4^+ lymphocytes in the peripheral lymph nodes
Lymph node cells
  percentage of CD4^+ positive cells (lymph node): 7.6±1.8 percentage
[3]
  response of peptide selected CD4^+ cells to agonist peptides in vitro: weakly proliferated; also recorded: respond in vitro

## NADFKTPATLTVDKA [IgGVH, reference compound]
[1]; 50 μg i.p.
  percentage of CD4^+ single positive cells (thymus): 0.8±0.4 percentage
[1]
  effect on thymic selection: had no effect on thymic selection
Lymph node cells
  percentage of CD4^+ positive cells (lymph node): 2.4±0.8 percentage

## Ova(323-339): peptide present in the ovalbumin protein; agonist for the OT-II TCR (KISQAVHAAHAEINEAG; UniProt P01012 323-339, looked up, fragment)
[1]
  effect on thymic selection: had no effect on thymic selection
[4]; high dose (100 μg and above)
  negative selection of transgenic thymocytes: induced negative selection
[4]; low dose (5-20 μg)
  selection of CD4^+ thymocytes: induced selection of a significant number of CD4^+ thymocytes
[4]; mouse, in vivo
  response of selected thymocytes to selecting peptide: continued to respond to stimulation by selecting peptide; also recorded: retain their ability to respond to selecting peptide
[4]; single injection of 10 μg, 48 and 72 hours
  selection of transgenic CD4^+ thymocytes: initiates selection of transgenic CD4^+Vβ5^+ thymocytes
